Laboratory results taken from PubChem BioAssay AID588677 (The Scripps Research Institute Molecular Screening Center, 2011).
Calls of active or inactive are those of the source.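 Rule for the calls: active = phosphorylated EGFR protein level shifted down or up by at least 30% versus solvent-only treated cells; inactive = shift under 30% in either direction.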

Target: Epidermal growth factor receptor (Homo sapiens) (UniProt P00533)
Experiment: phospho-EGFR protein level reduction, late-stage follow-up, counter-screen for KLF5 inhibitor project, SW620 cells, chemiluminescent western blot, powder samples (AID 588677)
Conditions: p-EGFR western blot, 24 h, at 10 µM; for fold change: measured here: p-EGFR band fold change vs DMSO

Chain of Epidermal growth factor receptor (Homo sapiens) (P00533 whole entry, looked up): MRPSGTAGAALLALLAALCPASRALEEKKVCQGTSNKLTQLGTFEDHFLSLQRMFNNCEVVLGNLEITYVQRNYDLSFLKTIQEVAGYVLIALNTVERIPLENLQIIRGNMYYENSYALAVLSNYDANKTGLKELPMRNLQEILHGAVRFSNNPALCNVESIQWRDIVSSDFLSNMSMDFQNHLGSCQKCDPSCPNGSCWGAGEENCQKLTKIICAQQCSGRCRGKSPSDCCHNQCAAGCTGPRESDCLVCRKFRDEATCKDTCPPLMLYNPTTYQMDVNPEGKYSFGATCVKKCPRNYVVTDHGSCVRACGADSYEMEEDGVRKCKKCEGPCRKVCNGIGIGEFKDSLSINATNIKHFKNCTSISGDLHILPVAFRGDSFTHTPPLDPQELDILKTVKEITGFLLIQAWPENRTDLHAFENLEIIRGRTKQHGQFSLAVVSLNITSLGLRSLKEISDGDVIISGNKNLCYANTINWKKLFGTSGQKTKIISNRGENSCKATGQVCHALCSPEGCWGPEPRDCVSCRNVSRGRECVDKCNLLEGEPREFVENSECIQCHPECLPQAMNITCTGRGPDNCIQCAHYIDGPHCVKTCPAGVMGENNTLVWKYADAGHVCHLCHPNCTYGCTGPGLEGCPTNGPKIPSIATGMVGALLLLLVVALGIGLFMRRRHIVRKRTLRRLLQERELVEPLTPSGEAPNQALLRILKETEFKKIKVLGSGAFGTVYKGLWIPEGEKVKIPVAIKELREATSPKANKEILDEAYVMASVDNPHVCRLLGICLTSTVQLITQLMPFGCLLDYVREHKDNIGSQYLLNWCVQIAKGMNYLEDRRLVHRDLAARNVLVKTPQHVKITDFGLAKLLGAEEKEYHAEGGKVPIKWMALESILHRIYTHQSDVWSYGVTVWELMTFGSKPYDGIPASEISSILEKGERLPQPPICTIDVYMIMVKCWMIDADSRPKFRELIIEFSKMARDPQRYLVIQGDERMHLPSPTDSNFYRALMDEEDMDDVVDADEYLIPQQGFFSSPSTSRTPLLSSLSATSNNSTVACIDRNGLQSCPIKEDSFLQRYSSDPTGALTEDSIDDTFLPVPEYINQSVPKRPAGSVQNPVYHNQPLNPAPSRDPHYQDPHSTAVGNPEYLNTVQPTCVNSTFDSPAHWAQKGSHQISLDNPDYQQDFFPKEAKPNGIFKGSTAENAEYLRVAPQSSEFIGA

| inhibition | Compound | fold change |
| --- | --- | --- |
| 20% (inactive) | CN(C(=O)CNC(=O)/C=C/c1cccc(Cl)c1)C1CCS(=O)(=O)C1 (stereo not given) | -1.25 |
| – | CN(C(=O)CNC(=O)/C=C/c1cccc(Cl)c1)C1CCS(=O)(=O)CC1 | 14.2 |
| -71.5% | CN(C(=O)COC(=O)/C=C/c1cccc([N+](=O)[O-])c1)C1CCS(=O)(=O)C1 (stereo not given) | 1.72 |
